Test results published in patent US9192662B2, “Methods using immunomodulatory compounds for modulating level of CD59” (Celgene Corporation, priority 2008, dated 2015).

What was measured:
CD59 mRNA [1] = experiment: CD59 mRNA levels in unstimulated monocytes (Affymetrix gene array); assay type: cell-based, Human; conditions: CD14+ monocytes from healthy volunteers, after treatment with 10 nM or more, FIG. 2
Description: Human PBMCs were isolated from buffy coat from three healthy volunteers using ficoll gradient centrifugation. CD14+ monocytes were isolated from each batch of PBMCs using anti-CD14 microbeads (Miltenyi). Cells were treated with 0.1% DMSO or 4-amino-2-(2,6-dioxopiperidin-3-yl)isoindoline-1,3-dione (1 μM) 1 or lenalidomide (10 μM) for 30 minutes. Thereafter the cells were either left unstimulated or stimulated with 100 ng/ml LPS and incubated for 6 hours. After the incubation period the cells were lysed in TRI reagent (Sigma) for RNA isolation. The RNAs isolated using the TRI reagent RNA isolation protocol, were column cleaned (Qiagen) and the RNAs kept separate from the donors, were pooled for cDNA synthesis. Briefly, double-stranded cDNA will be synthesized using 2-5 μg of total RNA. Biotin-labeled cRNA will be synthesized using MessageAmp aRNA kit (Ambion), 15 μg of cRNA fragmented and hybridized to each Affymetrix human UI 33A array. The above procedures will be done twice for each RNA sample to obtain replicate biotin-labeled probes. Data analysis was performed using GeneSpring (Agilent).

CD59 mRNA [2] = experiment: CD59 mRNA levels in several in vitro cellular models in Affymetrix gene array experiments; assay type: cell-based; conditions: primary T cells, primary monocytes, NK cells, cultured PBMCs from normal and CLL patients, Namalwa Burkitt's lymphoma cell line
Source text: In certain embodiments, the immunomodulatory compounds provided herein, such as 3-(4-amino-1-oxo-1,3-dihydro-isoindol-2-yl-piperidine-2,6-dione (lenalidomide), 4-amino-2-(2,6-dioxopiperidin-3-yl)isoindoline-1,3-dione or N-{[2-(2,6-dioxo(3-piperidyl)-1,3-dioxoisoindolin-4-yl]methyl}cyclopropyl-carboxamide, induce increase in the mRNA levels of CD59 in several in vitro cellular models in Affymetrix gene array experiments (both primary cells and cell lines). In certain aspects, this increase is found in primary T cells, primary monocytes, NK cells, cultured PBMCs from normal and CLL patients, and the Namalwa Burkitt's lymphoma cell line.
Namalwa cells are cultured in RPM1 supplemented with 10% fetal bovine serum. Cells are treated with vehicle control (0.1% DMSO) or 4-amino-2-(2,6-dioxopiperidin-3-yl)isoindoline-1,3-dione (10 μM) or lenalidomide (10 μM) for 8 hours and 24 hours. Cells are harvested and RNA isolated as described above. Methods for Affymetrix gene array analysis are as described above.
PBMCs are isolated from whole blood from CLL patients (MD Anderson) using ficoll gradient centrifugation. Cells are treated with 4-amino-2-(2,6-dioxopiperidin-3-yl)isoindoline-1,3-dione (1 μM), lenalidomide (10 μM) or N-{[2-(2,6-dioxo(3-piperidyl)-1,3-dioxoisoindolin-4-yl]methyl}cyclopropyl-carboxamide (10 μM) for 24 and 48 hours. Samples from five CLL patients are analyzed individually. Cells are harvested and RNA isolated as described above. Methods for Affymetrix gene array analysis are as described above.

CD59 mRNA [3] = experiment: CD59 mRNA levels in PBMCs (Affymetrix gene array); assay type: cell-based, Human; conditions: PBMCs from healthy volunteers; 24, 48 and 72 hours; lenalidomide 10 μM, CC-4047 1 μM; FIG. 1
Description: Human PBMCs were isolated from buffy coat from healthy volunteers using ficoll gradient centrifugation. PBMCs were treated with 4-amino-2-(2,6-dioxopiperidin-3-yl)isoindoline-1,3-dione (1 μM) or lenalidomide (10 μM) or vehicle control (0.1% DMSO) for 24 hours, 48 hours, and 72 hours. Cells were harvested and RNA isolated as above. Methods for Affymetrix gene array analysis were as described above.

CD59 mRNA [4] = experiment: CD59 mRNA levels in alpha-CD3/CD28 stimulated T cells (Affymetrix gene array); assay type: cell-based, Human; conditions: CD4+ T cells, anti-CD3/anti-CD28 stimulation; 3, 6, 12 and 24 hours; lenalidomide 10 μM, CC-4047 1 μM; FIG. 3
Description: Human PBMCs were isolated from buffy coat from four healthy volunteers using ficoll gradient centrifugation CD4+ T cells were isolated from each batch of PBMCs using anti-CD4 microbeads (Miltenyi). Cells were treated with 0.1% DMSO or 4-amino-2-(2,6-dioxopiperidin-3-yl)isoindoline-1,3-dione (1 μM) 1 or lenalidomide (10 μM) in the presence or absence of anti-CD3/anti-CD28 stimulation over a time course which included 3, 6, 12 and 24 hours of treatment. Cells were harvested at indicated times and RNA isolated as described above. Methods for Affymetrix gene array analysis were as described above.

Nc1cccc2c1C(=O)N(C1CCC(=O)NC1=O)C2=O (stereo not drawn) [CC-4047, 4-amino-2-(2,6-dioxopiperidin-3-yl)isoindoline-1,3-dione]
increase: CD59 mRNA levels in unstimulated monocytes (CD59 mRNA [1]) | mRNA levels of CD59 in several in vitro cellular models (CD59 mRNA [2]) | CD59 mRNA levels in PBMC cells (CD59 mRNA [3]) | CD59 mRNA levels in α-cd3/cd28 stimulated T cells (CD59 mRNA [4])

O=C1CCC(N2C(=O)c3cccc(CNC(=O)C4CC4)c3C2=O)C(=O)N1 (stereo not drawn) [N-{[2-(2,6-dioxo(3-piperidyl)-1,3-dioxoisoindolin-4-yl]methyl}cyclopropyl-carboxamide]
increase: mRNA levels of CD59 in several in vitro cellular models (CD59 mRNA [2])

Nc1cccc2c1CN(C1CCC(=O)NC1=O)C2=O (stereo not drawn) [lenalidomide, 3-(4-amino-1-oxo-1,3-dihydro-isoindol-2-yl)-piperidine-2,6-dione]
increase: CD59 mRNA levels in unstimulated monocytes (CD59 mRNA [1]) | mRNA levels of CD59 in several in vitro cellular models (CD59 mRNA [2]) | CD59 mRNA levels in PBMC cells (CD59 mRNA [3]) | CD59 mRNA levels in α-cd3/cd28 stimulated T cells (CD59 mRNA [4])
